According to publication PMC7922564, “Molecular Insights into an Antibiotic Enhancer Action of New Morpholine-Containing 5-Arylideneimidazolones in the Fight against MDR Bacteria” (International Journal of Molecular Sciences, 2021):
Where two headings read alike, the source gives them in different places.

How the values were obtained:
[1] = system: K. aerogenes Ea-289 (overexpression of AcrAB-TolC); assay: MIC of compounds, K. aerogenes Ea-289; assay type: cell-based; details: Klebsiella aerogenes
Protocol: At first, MIC values of compounds were determined (Table S15, Supplementary). Next, their abilities to reduce MICs of the AcrAB-TolC substrates doxycycline (a tetracycline-class antibiotic) and erythromycin were studied (Table S16, Supplementary). […]
(§1) Determination of MIC values, i.e., intrinsic antibacterial activity, of products and antibiotics (oxacillin, ampicillin, vancomycin, ciprofloxacin, and erythromycin) in the presence and absence of compounds tested was conducted by the use of a standard 2-fold microdilution method in cation-adjusted Mueller Hinton broth following the Clinical and Laboratory Standards Institute (CLSI) guidelines. The MIC values were detected using an Infinite M200 pro Tecan microplate reader (Tecan® France, SA-Lyon, France). MIC determinations were conducted in 96-well microtiter plates and repeated 3–4 times.
(§2) MIC values of 5-arylideneimidazolone derivatives were determined following CLSI recommendations as in the methods described for S. aureus (Section 3.3.1).

[2] = system: K. aerogenes Ea-289; assay: MIC reduction assay (antibiotic adjuvant), K. aerogenes Ea-289; assay type: cell-based, Klebsiella aerogenes;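 note: compound at no more than one quarter of its own MIC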
Protocol: At first, MIC values of compounds were determined (Table S15, Supplementary). Next, their abilities to reduce MICs of the AcrAB-TolC substrates doxycycline (a tetracycline-class antibiotic) and erythromycin were studied (Table S16, Supplementary).
(§3) A subset of compounds, namely 7, 12–16, 19, 20, was also examined for the potential to increase the effectiveness of the antibiotics chloramphenicol, erythromycin, doxycycline, and the fluoroquinolone antibiotic norfloxacin, which all are substrates for AcrAB-TolC in K. aerogenes. In addition to strain Ea-289, the adjuvant-like effect of the compounds was investigated in strain CM-64, which also overexpresses the AcrAB-TolC efflux pump, although it has no changes in porin content, and in the Ea-289 derivatives, i.e., Ea-294 and Ea-308, which are devoid of AcrAB (Table S17, Supplementary).
(§4) Initially, MICs of a series of imidazolone derivatives were assessed against susceptible (reference) and MDR strains of staphylococci. Next, MIC values of the aforementioned antibiotics were determined in the absence and presence of imidazolone derivatives to assess the chemosensitizing effect of these compounds. […] 5-arylideneimidazolones and 5-arylidenethiazolones, which precipitated after addition to bacterial suspension in MH II medium, were tested at the highest concentrations at which precipitation was not observed. […] Antibacterial activity of compounds and antibiotics ampicillin, vancomycin, ciprofloxacin, and erythromycin was recorded as the lowest concentration of molecules able to inhibit bacterial growth after 18 h incubation at 37 °C. The incubation of bacterial strains exposed to oxacillin paired with compounds tested was conducted at 35 °C and extended to 24 h due to frequent occurrence of heterogeneity among MRSA strains. The results are presented as activity gain (A) parameter which was calculated as ratio of MIC of a certain antibiotic (MICAnt) to its MICAnt+Comp, observed in combination with a tested compound (7, 12–16, 19, or 20; Equation (1)). (1) A=(MICAnt/MICAnt+Comp)
as §2

[3] = system: MRSA 19449; assay: MIC determination (microdilution), MRSA 19449; assay type: cell-based, Staphylococcus aureus; details: Staphylococcus aureus, MRSA, no precipitation
Protocol: as §1, §4

[4] = system: S. aureus ATCC 25923; assay: MIC determination (microdilution), S. aureus ATCC 25923; assay type: cell-based, Staphylococcus aureus; details: Staphylococcus aureus, ATCC25923, unstarred values of column MIC value/no precipitation; read-out: MIC value
Protocol: as §1, §4

[5] = system: K. aerogenes Ea-289; set-up: method as in earlier work; details: doxycycline, chloramphenicol, norfloxacin, already published, cited from earlier work
[6] = system: K. aerogenes Ea-294, Ea-308 (devoid of AcrAB); assay: MIC of compounds, K. aerogenes Ea-294, Ea-308; assay type: cell-based; details: Klebsiella aerogenes, read-out: Minimal Inhibitory Concentration (MIC)
Description: as §3, §1, §2

[7] = system: K. aerogenes CM-64; set-up: method as in earlier work; details: doxycycline, chloramphenicol, norfloxacin, already published, cited from earlier work
[8] = system: S. aureus ATCC 25923; set-up: method as in earlier work; details: starred (*) value; published previously; cited from earlier work
[9] = system: K. aerogenes Ea-294, Ea-308; set-up: method as in earlier work; details: doxycycline, chloramphenicol, norfloxacin, already published, cited from earlier work
[10] = system: K. aerogenes CM-64 (overexpression of AcrAB-TolC); assay: MIC of compounds, K. aerogenes CM-64; assay type: cell-based; details: Klebsiella aerogenes, read-out: Minimal Inhibitory Concentration (MIC)
Description: as §3, §1, §2

[11] = system: AcrAB-TolC efflux pump in K. aerogenes strain Ea-289; set-up: method as in PMID 30691112; details: compound 100 µM; previously described; cited from earlier work
[12] = system: S. aureus ATCC 25923; set-up: method as in earlier work; details: published previously, cited from earlier work
[13] = read-out: MIC value/no precipitation

Structure (SMILES) | MIC [1, 13] [µM] | A (activity gain) ([2]; doxycycline) | A (activity gain) ([2]; erythromycin) | MIC [3] [µM] | MIC [4] [µM] | melting point [°C] | MIC reduction ([5]; erythromycin + compound) | A (activity gain) ([5]; erythromycin) | MIC [6] [µM] | MIC reduction ([7]; erythromycin + compound) | A (activity gain) ([7]; erythromycin) | no precipitation: highest possible concentration of a compound (due to precipitation) at which growth of bacteria was observed [8] [mM] | MIC reduction ([9]; erythromycin + compound) | A (activity gain) ([9]; erythromycin) | MIC ([1]; read-out: Minimal Inhibitory Concentration (MIC)) [µM] | MIC [10] [µM] | Inhibition efficiency (IE) towards extrusion of 1,2'-dNA [11] [%] | MIC reduction ([12]; oxacillin alone to oxacillin + compound) | A (activity gain) ([12]; oxacillin)
Cl.NC1=N/C(=C\c2cccc3ccccc23)C(=O)N1CCCN1CCOCC1 [Compound 18, (Z)-5-(Naphthalen-1-ylmethylene)-2-Amino-3-(3-Morpholinopropyl)-Imidazol-4(5H)-one Hydrochloride] | > 250 | 1 | 1 | 2000 | 1000 | 265 to 268 |  |  |  |  |  |  |  |  |  |  |  |  | 
Cl.O=C1N=C(N2CCC(N3CCOCC3)CC2)S/C1=C\c1ccc2c(c1)Cc1ccccc1-2 [Compound 22, (Z)-5-((9H-Fluoren-2-yl)methylene)-2-(4-Morpholinopiperidin-1-yl)Thiazol-4-one Hydrochloride] | > 250 | 1 | 1 | 31.2 to 250 | 62.5 | 244 to 246 |  |  |  |  |  |  |  |  |  |  |  |  | 
Cl.O=C1N=C(NCCCN2CCOCC2)S/C1=C\c1ccc2c(c1)Cc1ccccc1-2 [Compound 23, (Z)-5-((9H-Fluoren-2-yl)methylene)-2-((3-Morpholinopropyl)amino)Thiazol-4(5H)-one Hydrochloride] | > 62.5 | 1 | 1 | 31.2 to 250 | 31.2 to 250 | 243 to 245 |  |  |  |  |  |  |  |  |  |  |  |  | 
NC1=N/C(=C\c2c3ccccc3cc3ccccc23)C(=O)N1CCCN1CCOCC1 [Compound 20] |  |  |  | 31.2 to 250 | 31.2 to 250 |  | No effect | 1 | 2000 | No effect | 1 | 0.0625 | No effect | 1 | > 2000 | > 2000 | 44 | No effect | 1
